One data set deals with Leukemia L-1210. Nature of the data set: Effect on the life span of mice implanted with leukemic cells of L-1210 (Method B). In kind it is in vivo, mice (male BDF1). To be noted: Mus musculus, L1210, ip, once a day for 5 days; for ILS at 6.25 mg/kg / responders at 6.25 mg/kg: 6.25 mg/kg/day i.p.; for ILS at 12.5 mg/kg / responders at 12.5 mg/kg: 12.5 mg/kg/day i.p.; for ILS at 25 mg/kg / responders at 25 mg/kg: 25 mg/kg/day i.p.; for ILS at 50 mg/kg / responders at 50 mg/kg: 50 mg/kg/day i.p.; for responders at 6.25 mg/kg / responders at 12.5 mg/kg / responders at 25 mg/kg / responders at 50 mg/kg: read-out: 60-day survivors (mice survived for 60 days/mice used) (converted). As to the method:
(B) Effect on the life span of mice implanted with leukemic cells of L-1210:
10^5 leukemic cells of L-1210 were inoculated intraperitoneally into a group of four or six male mice (BDF1 mice, body weight: 19-23 g). A test compound was dissolved in a physiological saline solution and administered intraperitoneally to the mice. The administration of the test compound was begun 24 hours after the inoculation of the leukemic cells and performed once a day for 5 days. The survival days of the treated mice were observed.
^a T = the mean survival days of the treated mice
C = the mean survival days of the untreated mice (control group of mice)
^b ILS(Increase in Life Span) =-
^c 60day survivors = the number of mice survived for 60 days/the

The test system of data set [1] is Ehrlich ascites carcinoma. As to the kind of experiment: Preventive effect against the growth of Ehrlich ascites tumor (Method A). The class given is in vivo, mice (female ICR). To be noted: for Toxic (number of mice died/number of mice used): 100 mg/kg/day i.p.; for Toxic (number of mice died/number of mice used) / inhibition in vivo at 0.09 mg/kg / inhibition in vivo at 0.19 mg/kg / inhibition in vivo at 0.39 mg/kg / inhibition in vivo at 0.78 mg/kg / inhibition in vivo at 3.12 mg/kg / inhibition in vivo at 12.5 mg/kg / inhibition in vivo at 50 mg/kg: once a day for 5 days; for inhibition in vivo at 0.09 mg/kg / inhibition in vivo at 0.19 mg/kg / inhibition in vivo at 0.39 mg/kg / inhibition in vivo at 0.78 mg/kg / inhibition in vivo at 3.12 mg/kg / inhibition in vivo at 12.5 mg/kg / inhibition in vivo at 50 mg/kg / minimal effective dose: Mus musculus, Ehrlich, ip, 168 h; for inhibition in vivo at 0.09 mg/kg: 0.09 mg/kg/day i.p.; for inhibition in vivo at 0.09 mg/kg / inhibition in vivo at 0.19 mg/kg / inhibition in vivo at 0.39 mg/kg / inhibition in vivo at 0.78 mg/kg / inhibition in vivo at 3.12 mg/kg / inhibition in vivo at 12.5 mg/kg / inhibition in vivo at 50 mg/kg: read-out: Inhibition ratio; for inhibition in vivo at 0.19 mg/kg: 0.19 mg/kg/day i.p.; for inhibition in vivo at 0.39 mg/kg: 0.39 mg/kg/day i.p.; for inhibition in vivo at 0.78 mg/kg: 0.78 mg/kg/day i.p.; for inhibition in vivo at 3.12 mg/kg: 3.12 mg/kg/day i.p.; for inhibition in vivo at 12.5 mg/kg: 12.5 mg/kg/day i.p.; for inhibition in vivo at 50 mg/kg: 50 mg/kg/day i.p.; for minimal effective dose: minimum dose with 100% inhibition of ascites tumor, unit from dose column, read-out: MED (Minimum Effective Dose). As to the method: (§1) (A) Preventive effect against the growth of Ehrlich ascites tumor:
(§2) 10^6 tumor cells of Ehrlich ascites carcinoma were inoculated intraperitoneally into a group of five femal mice (ICR mice, body weight: 19-23 g). A test compound was dissolved in a physiological saline solution [In the case where CCNU was employed as the test compound, said compound was suspended in a physiological saline solution containing 0.1% NIKKOL HCO-60 (trademark; a surface active agent manufactured by Nikko Chemicals Co. Ltd.)] and administered intraperioneally to the mice. The administration of the test compound was begun 24 hours after the inoculation of the tumor cells and performed once a day for 5 days. The volume of ascites in the treated mice were measured after 7 days of the experiment.
(§3) ^a T = the average volume of ascites in the treated mice
(§4) C = the average volume of ascites in the untreated mice (control group of
(§5) 100% inhibition for the growth of Ehrlich ascites tumor in mice without
(§6) causing the death of said mice)
(§7) 100% inhibition for the growth of said ascites tumor)
(§8) ^e Therapeutic index = MTD/MED
(§9) *the number of mice died/the number of mice used

Test in data set [2]: as above
The class given is in vivo, mice (female ICR). To be noted: mouse, in vivo, ip; maximum dose with 100% inhibition of Ehrlich ascites tumor without causing death; unit from dose column; read-out: MTD (Maximum Tolerated Dose). As to the method:
as §1, §2, §3, §4, §5, §6, §7, §8, §9

[3] abbreviates: 120 h, read-out: ILS (Increase in Life Span).

Regarding `COCCCN(C(=O)N(CCCl)N=O)C1OC[C@H](O)[C@H](O)[C@H]1O` (stereo partly drawn) [Compound 4, 1-(2-chloroethyl)-1-nitroso-3-(3-methoxy-n-propyl)-3-(L-arabinopyranosyl)urea], in the data set with Leukemia L-1210 (setting [3]), the ILS at 6.25 mg/kg amounted to 97.2%, the ILS at 12.5 mg/kg is over 324%, the ILS at 25 mg/kg is over 733% and the increase in lifespan (ILS) at 50 mg/kg is over 733%. Further, in the data set with Leukemia L-1210 (1440 h), the responders at 6.25 mg/kg is 0%, the responders at 12.5 mg/kg is 33.3%, the responders at 25 mg/kg is 100% and the responders at 50 mg/kg was 100%. In data set [1], the “Toxic (number of mice died/number of mice used)” value is 2/5, the “Therapeutic index (MTD/MED)” value stood at 128, the inhibition in vivo at 0.09 mg/kg amounted to 18.4% and the inhibition in vivo at 0.19 mg/kg amounted to 44.9%. For the same compound, in data set [1], the inhibition in vivo at 0.39 mg/kg stood at 100%, the inhibition in vivo at 0.78 mg/kg amounted to 100%, the inhibition in vivo at 3.12 mg/kg turned out to be 100% and the inhibition in vivo at 12.5 mg/kg came out at 100%. Also, in data set [1], the inhibition in vivo at 50 mg/kg came to 100% and the minimal effective dose is 0.39 mg/kg/day. In addition, the “therapeutic index (M.T.D./M.E.D.) relative to that of GANU” value in data set [1] (Ehrlich ascites tumor, greater than that of GANU) worked out at 4 times. Also, in data set [2], the MTD at 168 h is 50 mg/kg/day.

Turning to `COCCN(C(=O)N(CCCl)N=O)C1OC[C@H](O)[C@H](O)[C@H]1O` (stereo partly drawn) [Compound 3, 1-(2-chloroethyl)-1-nitroso-3-(2-methoxyethyl)-3-(L-arabinopyranosyl)urea], in the data set with Leukemia L-1210 (setting [3]), the ILS at 6.25 mg/kg amounted to 87.5%, the ILS at 12.5 mg/kg is over 556%, the ILS at 25 mg/kg is over 733% and the ILS at 50 mg/kg was over 615%. Besides, in the data set with Leukemia L-1210 (1440 h), the responders at 6.25 mg/kg was 0%, the responders at 12.5 mg/kg was 66.7%, the responders at 25 mg/kg is 100% and the responders at 50 mg/kg was 83.3%. In data set [1], the “Toxic (number of mice died/number of mice used)” value is listed as 3/5, the “Therapeutic index (MTD/MED)” value is listed as 128, the inhibition in vivo at 0.09 mg/kg was 13.5% and the inhibition in vivo at 0.19 mg/kg amounted to 55.6%. Further, in data set [1], the inhibition in vivo at 0.39 mg/kg stood at 100%, the inhibition in vivo at 0.78 mg/kg turned out to be 100%, the inhibition in vivo at 3.12 mg/kg worked out at 100% and the inhibition in vivo at 12.5 mg/kg came to 100%. For the same compound, in data set [1], the inhibition in vivo at 50 mg/kg was 100% and the minimal effective dose was 0.39 mg/kg/day. Moreover, the MTD at 168 h in data set [2] amounted to 50 mg/kg/day.

`COCCN(C(=O)N(CCCl)N=O)C1O[C@H](CO)[C@@H](O)[C@H]1O` (stereo partly drawn) [Compound 9, 1-(2-chloroethyl)-1-nitroso-3-(2-methoxyethyl)-3-(D-ribofuranosyl)urea]: in the data set on Leukemia L-1210 (120 h, 1.56 mg/kg/day i.p., read-out: ILS (Increase in Life Span)), the ILS at 1.56 mg/kg was found to be 40%. In the data set on Leukemia L-1210 (setting [3]), the increase in life span (ILS) at 6.25 mg/kg is over 243%, the increase in lifespan (ILS) at 12.5 mg/kg is over 414%, the ILS at 25 mg/kg was over 757% and the ILS at 50 mg/kg is over 757%. Besides, in the data set with Leukemia L-1210 (1440 h, 1.56 mg/kg/day i.p., read-out: 60-day survivors (mice survived for 60 days/mice used)), the responders at 1.56 mg/kg was determined as 0%. Moreover, in the data set on Leukemia L-1210 (1440 h), the responders at 6.25 mg/kg was 25%, the responders at 12.5 mg/kg is 50%, the responders at 25 mg/kg was 100% and the responders at 50 mg/kg was 100%. In addition, in data set [1], the “Toxic (number of mice died/number of mice used)” value is recorded as 3/5, the “Therapeutic index (MTD/MED)” value is on record as 64, the inhibition in vivo at 0.19 mg/kg amounted to 20% and the inhibition in vivo at 0.39 mg/kg turned out to be 62%. In data set [1], the inhibition in vivo at 0.78 mg/kg was found to be 100%, the inhibition in vivo at 3.12 mg/kg turned out to be 100%, the inhibition in vivo at 12.5 mg/kg was 100% and the inhibition in vivo at 50 mg/kg is 100%. Further, the minimal effective dose in data set [1] amounted to 0.78 mg/kg/day. The MTD at 168 h in data set [2] came out at 50 mg/kg/day.

For orientation: ILS means how much longer treated animals lived than controls. One may read the MTD as the highest dose tested that stayed within the study's limit of toxicity.
